The values below come from patent publication US20240100027A1, “INHIBITION OF PROSTAGLANDIN DEGRADING ENZYME 15-PGDH TO IMPROVE JOINT STRUCTURE AND FUNCTION” (The Board of Trustees of the Leland Stanford Junior …, priority 2020, published 2024).

This test concerns human OA cartilage explants. The test can be described thus: Human OA cartilage explants: DMMB assay for sGAG. The format is cell-based. Particulars: SW 10 uM, 7 days, vs vehicle. The text has this: Human cartilage tissue collection and treatment. Human cartilage samples were harvested from the surgical knee tissue discards of patients (n>5, age ranging from 55-75 years) undergoing total knee arthroplasty according to approved human subjects institutional review board protocols at Stanford University. Informed, written consent was given by the patients prior to the study. Cylindrical explants (4 mm diameter, 2-4 mm thickness) were extracted from the cartilage samples using standard biopsy punches (Integra, NJ. USA). […]
1,9-dimethylmethylene Blue (DMMB) and Pico-green Assays. […] Briefly, 20 μL sample was mixed with 200 μL DMMB solution (16 mg DMMB dye dissolved in an aqueous solution of 0.03 m NaCl, 40 mm glycine, 9.5% 0.1 m acetic acid, pH 3.0) and absorbance was measured at 525 nm immediately. […] The DNA content in OA explants was measured by Pico-green assay (Quant-iT Pico-green dsDNA Assay Kit, Invitrogen) as per manufacturer's instructions using the same papain digest supernatant of the OA explants. Quantified sulfated GAG content in OA cartilage explants was normalized to the weight of corresponding explants and the DNA content.
Next, the effects of 15-PGDH inhibition in human OA cartilage were tested. […] Sulphated glycosaminoglycans (sGAG) were also independently quantified through measurements with the DMMB dye. […]

In the case of `CCCC[S+]([O-])c1sc2nc(-c3cccs3)cc(-c3ccccc3)c2c1N` (stereo not shown) [SW033291, 2-(butylsulfinyl)-4-phenyl-6-(thiophen-2-yl)thieno[2,3-b]pyridin-3-amine], the “GAG content (sGAG, DMMB dye)” value is “significantly increased”.
